Data taken from patent US20220117964A1, “COMBINATION OF FAK INHIBITOR AND BTK INHIBITOR FOR TREATING A DISEASE” (ASCENTAGE PHARMA (SUZHU) CO., LTD., priority 2019, published 2022).
Values joined by “and” are separate entries in the source; they are usually repeats but may differ in a detail not shown here. Equal values may be shown once. Read-outs that look alike come from different tables or passages of the source.

Assays:
[1] = tested on: YES-2 cells; test: Cell migration (Transwell) assay; type: cell-based; conditions: 0.5 μM Compound 5, 0.25 μM Ibrutinib or both
Description: (§1) The culture medium was sucked into a chamber of Transwell (PC membrane, pore size 8.0 μm, Corning, N.Y., USA), and then the chamber was placed in a 24-well plate containing 750 μl of 50% FBS medium. After incubation for 24 to 30 hours, the chamber was taken out, the medium in the chamber was sucked out, and the redundant cells in the chamber were wiped off with a cotton swab. The chamber was placed in paraformaldehyde to perform fixation for 15 minutes, and staining was performed with 0.5% crystal violet at room temperature for 15 minutes. Cell migration activity was described as a relative number of the cells that exited the chamber.
(§2) (1) The experimental method was as described in the items (1), (2), (5) of Example 2. […] The changes in signaling pathway of related proteins were determined by Western blotting assay.

[2] = tested on: KYSE-150 cells; test: Cell migration (Transwell) assay; type: cell-based, human; conditions: 1 μM Compound 5, 1 μM Ibrutinib or both
Description: as §1, §2

[3] = tested on: human KYSE-150 mouse xenograft tumor model; test: Human KYSE-150 mouse xenograft tumor model, antitumor effect; type: in vivo, BALB/c Nude mice; conditions: for RTV on day 12 after administration (mean ± standard error): day 12 (last dose); for RTV on day 12 after administration (mean ± standard error) / T/C on day 12 after administration (%) / RTV on day 18 after administration (mean ± standard error) / T/C on day 18 after administration (%): Compound 5 100 mg/kg p.o., Ibrutinib 25 mg/kg i.p.; for RTV on day 12 after administration (mean ± standard error) / RTV on day 18 after administration (mean ± standard error): qd × 5d, withdrawal 2 days/week × 2 weeks; for Tumor state on day 12 after administration: CR: day 12, animals with complete regression of tumor / group; for Tumor state on day 12 after administration: PR: day 12, animals with partial regression of tumor / group; for Tumor state on day 12 after administration: SD: day 12, animals with stable disease / group; for RTV on day 18 after administration (mean ± standard error): day 18 (after drug withdrawal); for Tumor state on day 18 after administration: CR: day 18, animals with complete regression of tumor / group; for Tumor state on day 18 after administration: PR: day 18, animals with partial regression of tumor / group; for Tumor state on day 18 after administration: SD: day 18, animals with stable disease / group
Description: The animals used were BALB/c Nude mice, 4-6 weeks old, female. Animal body weight was 14-16±20% g. The experimental animals were provided by Beijing Weitonglihua Experimental Animal Technology Co., Ltd. (Vital River Laboratories, VRL, license number: SOCK (J) 2016-0011). Animal certificate number: 11400700325794.
Compound 5 was intragastrically administered at a dose of 100 mg/kg and a volume of 200 μl. The preparation for the administration was prepared every 3 days and stored at 4° C. when it has not been in use. The formulation and use of the preparation were carried out under sterile conditions. […] The preparation for the administration was prepared every 3 days and stored at 4° C. The formulation and use of the preparation were carried out under sterile conditions.
Forty immunodeficiency mice were subcutaneously injected with 5×10^6 KYSE-150 cells suspended in 100 μl PBS in the right armpit to establish a xenograft tumor model. […] When the tumor reached an appropriate size (50 to 100 mm^3), the animals were randomly assigned according to the tumor volume, in which the difference in tumor volume among groups should be less than 10% of the mean value, and at last 7 mice were assigned to each group, and the administration was star ted on the day of group assignment (i.e., d1).
A subcutaneous immunodeficient-mice xenograft tumor model of human tumor was established by cell inoculation method: tumor cells in logarithmic growth phase were collected, counted and resuspended in 1×PBS, and the concentration of cell suspension was adjusted to 5×10^7/mL. 1 mL syringe ([…]) was used to inoculate the tumor cells subcutaneously on the right back of immunodeficient mice, 5×10^6/0.1 mL/mouse. All animal experiments were performed strictly in accordance with the guidelines for Institutional Animal Care and Use Committee (IACUC) of Sun Yat-sen University and Suzhou Yasheng Pharmaceutical Co., Ltd. The calculation of related parameters referred to China NMPA “Technical Guidelines for Nonclinical Research of Cytotoxic Antitumor Drugs”.
Animal body weight and tumor size were measured twice per week during the experiment. The growth of tumor was periodically observed, and when the tumor grew to an average volume of 50 to 100 mm^3, the mice were randomly divided into groups for administration according to tumor size and body weight. The status and deaths of the animals were observed every day. The routine monitoring included the effects of tumor growth and drug administration on the normal behaviors of animals, specially included the activity of experimental animals, food and water consumption, weight gain or loss, eyes, hair, and other abnormal conditions. The deaths and clinical symptoms observed during the experiment were recorded in the raw data. The entire operation for administration, measurement of mouse weight and tumor volume was performed in a clean bench. According to the requirements of the experimental protocol, when the long diameter of tumor was greater than 20 mm, the experimental end point was reached and the mice were euthanized. Tumor tissues were collected, weighed and photographed for recording.
Tumor volume (TV) was calculated as: TV=a×b^2/2, wherein a and b represented the measured length and width of tumor, respectively. The relative tumor volume (RTV) was calculated as: RTV=Vt/V1, wherein V1 represented the tumor volume at the time of group assignment and administration, and Vt represented the tumor volume on a certain day after administration.

[4] = tested on: YES-2; test: CCK-8 cell viability assay; type: cell-based; conditions: read-out: IC50, proliferation inhibition
Description: (§3) Cell viability was measured using Cell Counting Kit-8 (Dojindo, Japan) according to the manufacturer's instructions. In short, cells were inoculated in a 96-well plate at 3000 to 4000 cells/well in the presence of a single drug or a combination of drugs for 72 hours. After 72 hours, CCK-8 reagent (10 μL/well) was added and incubated at 37° C. for 1-2 hours, and absorbance readings at 450 nm were obtained. The IC50 values were calculated by using GraphPad Prism version 6.0.0 (GraphPad Software, San Diego, Calif. USA) for Windows.
(§4) (1) The experimental method was described in item (1) and item (5) of Example 2. The expression difference of FAK gene between normal esophageal tissue and esophageal cancer tissue was determined by analyzing the TCGA database source information in the GEPIA database (http://gepia.cancer-pku.cn/), and the correlation between the FAK gene and the EGFR gene in esophageal cancer was determined by analyzing the TCGA database source information using the Pearson test. The basic protein expression levels for the following proteins in 6 esophageal cancer cell lines (TE-10, TE-1, YES-2, KYSE-520, KYSE-510, KYSE-150) were detected by Western blot method: EGFR, phosphorylated-EGFR (p-EGFR, Tyr1068), FAK, phosphorylated-FAK (p-FAK, Tyr397), BTK, C-Myc, phosphorylated-C-Myc (p-C-Myc), in which f3-tubulin was used as internal reference protein.
(§5) (1) The experimental methods were as described in the items (1), (3) and (4) of Example 2.

[5] = tested on: KYSE-150; test: CCK-8 cell viability assay; type: cell-based; conditions: Homo sapiens; KYSE-150 cells, CCK-8, 72 hours; read-out: IC50, proliferation inhibition
Description: as §3, §4, §5

[6] = tested on: KYSE-520; test: CCK-8 cell viability assay; type: cell-based; conditions: Homo sapiens; KYSE-520 cells, CCK-8, 72 hours; read-out: IC50, proliferation inhibition
Description: as §3, §4, §5

For Cc1cc(Nc2ncc(Cl)c(Nc3ccccc3S(=O)(=O)C(C)C)n2)c(OC(C)C)cc1C1=CCN(C2CCOCC2)CC1 [Compound 5, 5-chloro-N^2-(2-isopropoxy-5-methyl-4-(1-(tetrahydro-2H-pyran-4-yl)-1,2,3,6-tetrahydropyridin-4-yl)phenyl)-N^4-(2-(isopropylsulfonyl)phenyl)pyrimidine-2,4-diamine], the cell migration [1] was “cell migration in certain extent”, the cell migration [2] was “cell migration in certain extent” and the “RTV on day 12 after administration (mean ± standard error)” value [3] was 1.4. The “Tumor state on day 12 after administration: CR” value [3] was 0/7 CR, the “Tumor state on day 12 after administration: PR” value [3] was 1/7 and 1/7 PR and the “Tumor state on day 12 after administration: SD” value [3] was 1/7 and 1/7 SD. The “T/C on day 12 after administration (%)” value [3] was 49.8%, the “RTV on day 18 after administration (mean ± standard error)” value [3] was 3.0 and the “Tumor state on day 18 after administration: CR” value [3] was 0/7 CR. For the same compound, the “Tumor state on day 18 after administration: PR” value [3] was 1/7 and 1/7 PR, the “Tumor state on day 18 after administration: SD” value [3] was 0/7 SD and the “T/C on day 18 after administration (%)” value [3] was 55.8%. It also gave an IC50 ([4]; YES-2 cells, CCK-8, 72 hours) of 956 nM, an IC50 [5] of 2310 nM and an IC50 [6] of 825 nM.
With C=CC(=O)N1CCC[C@@H](n2nc(-c3ccc(Oc4ccccc4)cc3)c3c(N)ncnc32)C1 [Ibrutinib] the cell migration [1] was “cell migration in certain extent”, the cell migration [2] was “cell migration in certain extent” and the “RTV on day 12 after administration (mean ± standard error)” value [3] was 1.4. The “Tumor state on day 12 after administration: CR” value [3] was 0/7 CR, the “Tumor state on day 12 after administration: PR” value [3] was 1/7 and 1/7 PR and the “Tumor state on day 12 after administration: SD” value [3] was 1/7 and 1/7 SD. For the same compound, the “T/C on day 12 after administration (%)” value [3] was 48.6%, the “RTV on day 18 after administration (mean ± standard error)” value [3] was 3.8 and the “Tumor state on day 18 after administration: CR” value [3] was 0/7 CR. The “Tumor state on day 18 after administration: PR” value [3] was “no animal and 0/7 PR”, the “Tumor state on day 18 after administration: SD” value [3] was “no animal and 0/7 SD” and the “Tumor state on day 18 after administration: remission rate, %” value ([3]; day 18, remission including CR, PR and SD) was “(0%)”. The “T/C on day 18 after administration (%)” value [3] was 70.2%, the IC50 ([4]; 72 h) was 177 nM and the IC50 [5] was 1220 nM. It also gave an IC50 [6] of 245 nM.
